From patent publication US7423015B1, “Antihelminthic drugs as a treatment for hyperproliferative diseases” (Board of Regents, The University of Texas System, priority 2001, dated 2008)

Legend:
[1] = test system: human lung cancer cell lines (H460 and A549); assay: In vitro proliferation assay with MZ, cell count; assay type: cell-based; settings: 24 h treatment, read-out: half maximal inhibitory concentration (IC50)
Experimental: (§1) Cells of the human non-small cell lung cancer (NSCLC) cell line A549, WI-38 normal fibroblast (American Type Culture Collection, Rockville, Md.) and H460 (a gift from Drs. Adi Gazdar and John Minna. University of Texas Southwestern Medical Center, Dallas) were seeded on culture plates (2×10^4 cells/well) in F12 and RPMI medium, respectively, supplemented with 10% heat-inactivated fetal calf serum and antibiotics. HUVEC were grown in medium supplemented with growth factor (Clonetics, San Diego). The cells were then exposed to MZ dissolved in dimethyl sulfoxide (DMSO) when grown to 40-50% confluence. Cell growth was monitored by counting the cells using a hemocytometer.
(§2) Initially, the inventors examined the effect of MZ on proliferation of human lung cancer cell lines (H460 and A549) in vitro.

[2] = test system: human vascular endothelial cells (HUVEC); assay: In vitro proliferation assay with MZ, cell count; assay type: cell-based; settings: 24 h treatment
Experimental: as §1, §2

[3] = test system: breast, ovarian and colon carcinoma and osteosarcoma; assay: In vitro proliferation assay with MZ; assay type: cell-based; settings: Homo sapiens
[4] = test system: H460 human non-small cell lung cancer xenograft; assay type: in vivo, athymic nu/nu mice
Experimental: Mice that had received 3.5 Gy of total body irradiation 1 day before inoculation were given injections into the shoulder of 2×10^6 tumor cells. Mice were then given MZ oral suspension (100 mg Vermox chewable tablet, Janssen Pharmaceutica, NJ, suspended in 10 ml PBS by sonication for 30 sec) with indicated concentration every other day, starting the day after 3-5 mm tumor established. Five mice were used in each group. Control and treated mice were then monitored for tumor growth; the tumors were measured externally in cross-sectional diameter every 7 days. Tumor volumes were calculated as previously described. Experiments were repeated three times.
The in vitro effect of MZ on proliferation of tumor cell lines prompted us to investigate its antitumor activity in an athymic nu/nu mouse model. Tumors were established by subcutaneous injection of H460 cells, a human non-small cell lung cancer (NSCLC) cell line ([…] cells/mouse) (FIG. 5B). […] Moreover, 10/10 animals inoculated with 1×10^6 cells developed tumors within 12 days. […] T0.2, T0.4 and T0.8 correspond to 0.2, 0.4 and 0.8 mg of MZ treatment groups (FIG. 5C). Animals with established tumors, 3-5 mm in diameter, received MZ every other day for 4 weeks, after which tumors were harvested, photographed, and weighed.

[5] = test system: tumor vascularity of H460 xenografts (CD31); assay: Immunohistochemical analysis of CD31 in H460 tumors; assay type: in vivo, nu/nu mice; settings: H460 xenografts in nude mice
Experimental: Subcutaneous H460 tumors established in nu/nu mice that were either not treated or treated with MZ were harvested and fixed in 4% buffered formalin, paraffin embedded, and cut as […] thick sections. Tissue sections were stained for CD31 expression using rat anti-mouse CD31 antibody (Pharmingen) as previously described with slight modifications. Briefly, following deparafinzation and rehydration, tissue sections were treated with 0.3% H2O2 in methanol for 30 min to block endogenous peroxidase activity and were subsequently incubated with normal rat serum for 30 min at room temperature. Following incubation, slides were treated with protease for 15 min followed with rat monoclonal anti-CD31 antibody (1:1000 dilution) for 60 minutes. After 30 min incubation with anti-rat secondary antibody (provided with ABC kit, Vector) CD31 in tissues was detected with DAB by enhancement with avidin-biotin reaction ABC kit. The slides were counterstained with hematoxylin and then mounted with Aqua-mount (Lerner Labs, Pittsburgh, Pa.). The number of vascular areas staining positive for CD31 were analyzed under bright-field microscopy. A total of at least five fields per specimen were analyzed. In all the staining procedures, appropriate negative controls were included. […]

[6] = test system: A549 metastatic lung colonies; assay: Lung metastases in vivo after tail vein injection; design: species or system female nude mice
Experimental: To establish lung metastases, female nude mice were injected intravenously via tail vein with 10^6 A549 tumor cells suspended in […] of sterile PBS. Six days later, mice were divided into two groups of 5 mice each and treated. Group 1 received no treatment and group 2 received the experimental MZ drug orally at 1 mg of drug (100 μl) twice a week for 3 weeks. After 3 weeks, animals were euthanized by CO2 inhalation. Lungs from each of the mice from the two groups were injected intra-tracheally with India ink and fixed in Feketes solution. The therapeutic effect of MZ treatment was determined by counting the number of metastatic tumors in each lung under a dissecting microscope without knowledge of the treatment groups. The experiments were performed three times and data analyzed and interpreted as statistically significant if the p value was <0.05 by the Mann-Whitney rank-sum test.
Next, the inventors asked whether treatment with MZ would inhibit the growth of human metastatic lung cancer cells in vivo. About 300 metastatic colonies appeared on untreated mice 21 days after A549 cell injection into the tail vein (FIG. 6). This technique was reproducible as the totals blindly counted by two investigators differed by less than 10%. This experiment was performed three times with similar results. The oral administration of […] MZ reduced mean colony count to 80% of the mean value for controls (P<0.0001).

topoisomerase I = topoisomerase I (Homo sapiens, UniProt P11387); assay: Test for topoisomerase I poison effect; assay type: biochemical
Source text: It has been shown recently that BZ are substrates for the P-glycoprotein transporter in multidrug-resistant tumor cells (Nare et al. 1994). It may be speculated that P-glycoprotein, which is overexpressed in several normal tissues and organs, could mediate the transport of BZ. Some terbenzimidazole compounds have been reported to be topoisomerase I poisons (Pilch et al., 1996).

VEGF = VEGF expression/secretion in H460 cell line; assay type: cell-based, human; settings: H460, treatment period 18 hours
Experimental: FIG. 7. Percent Inhibition of VEGF Expression in H460 Cell Line After MZ Treatment. Treatment period was 18 hours; control (C); treatment (T).
One of the most encouraging findings is that MZ inhibited the neovascularization in the human xenografts tested. […] The inventors have thus shown that MZ is a potent antiangiogeneic agent. It had no effect on endothelial cell growth, instead directly targeting tumor cells in vivo. MZ may be effective in the treatment of cancer and other angiogenesis-dependent diseases.

[7] = test system: H460 NSCLC cell lines resistant to taxol or vinorelbine; assay: Cell death of microtubule drug resistant cells; assay type: cell-based, human; settings: MZ 0.5 μM, 48 h time point
Experimental: The inventors have developed H460 NSCLC cell lines that are resistant to the microtubule drugs: taxol (7 nM) or vinorelbine (9 nM). These cell lines show a marked cross resistance to each other. For example Taxol resistant cells show resistance to Vinorelbine mediated cell death. […] Thus, MZ can be effectively used for killing multi-drug resistant (MDR) cells in a clinical setting.

Sequence of topoisomerase I (P11387 whole entry): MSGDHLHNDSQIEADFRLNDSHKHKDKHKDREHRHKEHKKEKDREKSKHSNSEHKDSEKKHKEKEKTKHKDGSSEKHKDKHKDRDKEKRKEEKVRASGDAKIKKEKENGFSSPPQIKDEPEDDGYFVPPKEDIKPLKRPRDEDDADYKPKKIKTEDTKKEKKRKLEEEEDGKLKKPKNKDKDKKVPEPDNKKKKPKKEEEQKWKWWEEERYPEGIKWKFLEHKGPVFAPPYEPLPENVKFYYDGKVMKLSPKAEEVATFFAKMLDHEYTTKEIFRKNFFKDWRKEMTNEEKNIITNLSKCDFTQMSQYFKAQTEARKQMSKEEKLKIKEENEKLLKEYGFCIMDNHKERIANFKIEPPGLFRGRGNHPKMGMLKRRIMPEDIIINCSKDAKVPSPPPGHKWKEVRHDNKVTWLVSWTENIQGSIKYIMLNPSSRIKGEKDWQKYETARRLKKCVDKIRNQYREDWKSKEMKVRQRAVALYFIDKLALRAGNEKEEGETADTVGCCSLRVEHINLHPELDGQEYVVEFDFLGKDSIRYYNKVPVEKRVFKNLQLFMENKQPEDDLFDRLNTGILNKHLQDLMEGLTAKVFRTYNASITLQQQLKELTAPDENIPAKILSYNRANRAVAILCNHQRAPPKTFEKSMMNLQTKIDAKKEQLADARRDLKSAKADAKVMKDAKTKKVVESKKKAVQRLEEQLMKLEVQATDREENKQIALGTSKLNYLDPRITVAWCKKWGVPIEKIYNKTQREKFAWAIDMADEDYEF

SMILES: COC(=O)Nc1nc2ccc(C(=O)c3ccccc3)cc2[nH]1 [Mebendazole, Methyl 5-benzoylbenzimidazole-2-carbamate]
- IC50 [1]: ~120 nM
- effect on growth of HUVEC [2]: no effect
- IC50 [3]: 100 to 800 nM
- tumor growth, dose escalation ([4]; 0.2, 0.4 and 0.8 mg of MZ every other day): suppressed the growth of the tumors in a dose-dependent manner
- tumor weight versus control animals ([4]; MZ every other day for 4 weeks): marked difference
- tumor growth ([4]; established tumors (3 mm), 1 mg of MZ orally every other day): profoundly inhibit tumor growth
- toxicity in treated mice ([4]; mouse, in vivo): no signs of toxicity
- neovascularization (blood vessel density, CD31) [5]: profoundly reduced
- size of tumor colonies (transverse diameter) ([6]; H and E staining of lung tissues): significantly reduced
- mean colony count, % of the mean value for controls ([6]; oral administration of 1 mg/ml MZ, 21 days after A549 injection, P<0.0001): 80%
- topoisomerase I poison effect (topoisomerase I): could not detect any
- VEGF secretion (VEGF): marked down-regulation
- cell death [7]: 40-70%
